Experimental data published in US20020098186A1, “Use of endothelin inhibitors for treatment or prevention of fibrotic disorders” (priority 1999, published 2002).

Assays:
[1] = tested on: rat secondary biliary liver fibrosis (BDO); assay: Histological assessment (staging) of liver fibrosis in BDO rats; type: in vivo
Experimental: (§1) Female adult wistar rats, average weight 206±19 g, underwent the following microsurgical procedure under an operating microscope (OPMI 6-2, Zeiss, Germany) (B. Gerling, M. Becker, J. Waldschmidt, D. Schuppan (1996). J. Hepatol. 25:79-84; G. Boigk, L. Stroedter, H. Herbst H, et al. (1997). Hepatology 26:643-639.): 1. midline abdominal incision following anaesthesia with 100 mg/kg ketamine-hydroochloride (Ketanest®, Parke-Davis, Germany) and 10 mg/kg 5,6-dihydro-2-(2,6-xylidino)-4H-1,3-thiazine-hydrochloride (Rompun®, Bayer, Germany); 2. dissection of the common bile duct, insertion of a teflon catheter (Abbocath -T 26 G, venisystems, U.S.A.) and placement of a distal complete and a proximal incomplete ligature with 5-0 silk (Permahand , Ethicon, Germany); 3. retrograde injection of sodium-amidotrizoate (Ethibloc®, Ethicon Germany) at a dose of 0.02 ml/100 g body weight; 4. removal of the catheter, closure of the proximal ligature, scission of the bile duct between the ligatures and wound closure. After bile duct occlusion (BDO), animals received normal chow (Altromin®, Lage, Germany) and were allowed free access to water. […] The following therapeutic groups were formed: 1. BDO and LU at 80 mg/kg/d for 6 weeks (BDO 80/1-6:n=20); 2. BDO and LU at 80 mg/kg/d from week 4-6 of BDO (BDO 80/4-6:n=20); 3. BDO and LU at 10 mg/kg/d (sham 80/ 1-6:n=10), rats without medication (control: n=10) and bile duct occluded animals without treatment for 6 weeks (BDO: n=20) served as controls.
For each liver 1 μm paraffin sections of the right and the left lobe were stained with hematoxylin/eosin, trichrome (Masson-Goldner) and silver impregnation (Gomori), and scores (see below of both lobes averaged. Inflammation and necrosis were graded according to the histological activity index of Knodell et al. (R. G. Knodell, K. G. Ishak, W. C. Black, et al. (1981). Hepatology 1:431-435.). Staging of fibrosis was modified from (G. Boigk, L. Stroedter, H. Herbst H, et al. (1997). Hepatology 26:643-649.) as follows: stage 0; normal; stage I: portal fiels marginally expanded by bile ductules; stage II: expanded portal fields which occasionally […] each other; stage III: markedly expanded portal fields, all of which broadly contact each other, separating hepatocellular islands; stage IV: the liver is entirely filled with fibrotic biliary proliferations that entrap few residual hepatocytes (severe cirrhosis). Scores of the right and left lobes were averaged to give single numerical values for each liver.

[2] = Tolerability in BDO and sham-operated rats (death, renal toxicity, food consumption, measured parameters); type: in vivo
Experimental: as §1
Early mortality (within 1 h to 3 days) in rats with BDO was due to local infection and amounted to 9%. […] After 6 weeks rats were sacrificed under ketanest(rompun-anaesthesia by puncture of the right ventricle and exsanguination. Heart, liver, spleen and kidneys were weighed, and 1-2 g pieces of the left and the right liver lobes fixed in 4% formalin for histology and hydroxyproline (HYP) determinations.
Rats with sham operation and rats with BDO were fed the oral endothelin A receptor antagonist LU 135252 (LU).
However, liver collagen (both as relative and total liver collagen content), which was increased 6- and 12-fold above normal, resp., in the untreated group with BDO, was reduced by 50-55% in rats on 80 mg LU/kg/d over the 6 weeks of BDO (p<0.001) (FIG. 1). […] Since contrary to the sham-operated rats, LU at 80 mg/kg/d which represents a high dose, caused death dose-dependently due to rental tubular necrosis in 50% and 25% of the two treatment groups, resp., a second experiment with a lower dose (10 mg/kg/d) over 6 weeks of BDO was performed.

[3] = BDO/LU 80/1-6: LU 80 mg/kg/d week 1-6
[4] = BDO/LU 80/4-6: LU 80 mg/kg/d week 4-6

COc1cc(OC)nc(O[C@H](C(=O)O)C(OC)(c2ccccc2)c2ccccc2)n1 [LU]
Histological assessment of fibrosis: animals at Stage I [1, 3]: 2 | Histological assessment of fibrosis: animals at Stage II [1, 3]: 4 | Histological assessment of fibrosis: animals at Stage III [1, 3]: 4 | Histological assessment of fibrosis: animals at Stage I [1, 4]: 4 | Histological assessment of fibrosis: animals at Stage II [1, 4]: 5 | Histological assessment of fibrosis: animals at Stage III [1, 4]: 3 | Histological assessment of fibrosis: animals at Stage IV [1, 4]: 2 | Histological assessment of fibrosis: animals at Stage I ([1]; headed BDO/LU 80/1-6): 8 | Histological assessment of fibrosis: animals at Stage II ([1]; headed BDO/LU 80/1-6): 5 | Histological assessment of fibrosis: animals at Stage III ([1]; headed BDO/LU 80/1-6): 4 | Histological assessment of fibrosis: animals at Stage IV ([1]; headed BDO/LU 80/1-6): 3 | Histological fibrosis score ([1]; rats with BDO, administration of LU): improved histological fibrosis score | Architectural distortion of the liver, semiquantitatively graded ([1]; rats with BDO, low-dose vs high-dose group (not shown)): even more significantly reduced in the low-than in the high-dose group | Death or renal toxicity ([2]; BDO rats, 10 mg/kg/d over 6 weeks): no death or renal toxicity was observed | Death due to renal tubular necrosis (share of treatment group) ([2]; BDO rats, LU 80 mg/kg/d for 6 weeks): 50% | Death due to renal tubular necrosis (share of treatment group) ([2]; BDO rats, LU 80 mg/kg/d from week 4-6): 25% | Food consumption by the animals ([2]; LU mixed with the chow): did not alter food consumption | Measured parameters (body and organ weights, liver collagen, liver histology, clinical chemical values) ([2]; sham-operated rats, LU 80 mg/kg/d for 6 weeks): did not alter any of the measured parameters
